In ChEMBL document CHEMBL1811859, “Second-generation sulfonamide inhibitors of D-glutamic acid-adding enzyme: activity optimisation with conformationally rigid analogues of D-glutamic acid” (Eur J Med Chem, 2011):
Converted amounts (≈) assume the structure as drawn.

Columns and labels:
Streptococcus pneumoniae [1] = test: Antimicrobial activity against Streptococcus pneumoniae D39 by broth dilution method; assay type: functional
Streptococcus pneumoniae [2] = test: Antimicrobial activity against Streptococcus pneumoniae ATCC 33400 by broth dilution method; assay type: functional
Streptococcus pneumoniae [3] = test: Antimicrobial activity against Streptococcus pneumoniae ATCC 49619 by broth dilution method; assay type: functional
Enterococcus hirae = test: Antimicrobial activity against Enterococcus hirae ATCC 9790 by broth dilution method; assay type: functional
Enterococcus faecium = test: Antimicrobial activity against Enterococcus faecium ATCC 19434 by broth dilution method; assay type: functional
Enterococcus faecalis [4] = test: Antimicrobial activity against Enterococcus faecalis ATCC 29212 by broth dilution method; assay type: functional
Enterococcus faecalis [5] = test: Antimicrobial activity against Enterococcus faecalis ATCC 19433 by broth dilution method; assay type: functional
Bacillus subtilis = test: Antimicrobial activity against Bacillus subtilis ATCC 6633 by broth dilution method; assay type: functional
Listeria monocytogenes = test: Antimicrobial activity against Listeria monocytogenes ATCC 14780 by broth dilution method; assay type: functional
Listeria innocua = test: Antimicrobial activity against Listeria innocua ATCC 33090 by broth dilution method; assay type: functional
Micrococcus luteus = test: Antimicrobial activity against Micrococcus luteus ATCC 9314 by broth dilution method; assay type: functional
Klebsiella pneumoniae = test: Antimicrobial activity against Klebsiella pneumoniae ATCC 13883 by broth dilution method; assay type: functional
Pseudomonas aeruginosa = test: Antimicrobial activity against Pseudomonas aeruginosa ATCC 27853 by broth dilution method; assay type: functional
Citrobacter freundii = test: Antimicrobial activity against Citrobacter freundii ATCC 8090 by broth dilution method; assay type: functional
Proteus mirabilis = test: Antimicrobial activity against Proteus mirabilis ATCC 29936 by broth dilution method; assay type: functional
Escherichia coli [6] = test: Antimicrobial activity against Escherichia coli ATCC 8739 by broth dilution method; assay type: functional
Escherichia coli [7] = test: Inhibition of Escherichia coli MurD ligase assessed as residual activity at 1 mM after 30 mins
[8] = tested on: Staphylococcus epidermidis; test: Antimicrobial activity against Staphylococcus epidermidis ATCC 12228 by broth dilution method; assay type: functional
Staphylococcus aureus [9] = test: Antimicrobial activity against Staphylococcus aureus ATCC 25923 by broth dilution method; assay type: functional
Staphylococcus aureus [10] = test: Antimicrobial activity against methicillin-resistant Staphylococcus aureus PL1 by broth dilution method; assay type: functional
Staphylococcus aureus [11] = test: Antimicrobial activity against methicillin-resistant Staphylococcus aureus ATCC 43300 by broth dilution method; assay type: functional
[12] = Inhibition of Escherichia coli MurD ligase assessed as addition of D-[3H]glu to UDP-N-acetyl-muramoyl-L-alanine after 30 mins
Escherichia coli [13] = test: Inhibition of Escherichia coli MurD ligase assessed as residual activity at 500 uM after 30 mins

| SMILES | MIC (Streptococcus pneumoniae [1]) [µg/mL] | MIC (Streptococcus pneumoniae [2]) [µg/mL] | MIC (Streptococcus pneumoniae [3]) [µg/mL] | MIC (Enterococcus hirae) [µg/mL] | MIC (Enterococcus faecium) [µg/mL] | MIC (Enterococcus faecalis [4]) [µg/mL] | MIC (Enterococcus faecalis [5]) [µg/mL] | MIC (Bacillus subtilis) [µg/mL] | MIC (Listeria monocytogenes) [µg/mL] | MIC (Listeria innocua) [µg/mL] | MIC (Micrococcus luteus) [µg/mL] | MIC (Klebsiella pneumoniae) [µg/mL] | MIC (Pseudomonas aeruginosa) [µg/mL] | MIC (Citrobacter freundii) [µg/mL] | MIC (Proteus mirabilis) [µg/mL] | MIC (Escherichia coli [6]) [µg/mL] | MIC [8] [µg/mL] | MIC (Staphylococcus aureus [9]) [µg/mL] | MIC (Staphylococcus aureus [10]) [µg/mL] | MIC (Staphylococcus aureus [11]) [µg/mL] | also measured |
| --- | --- | --- | --- | --- | --- | --- | --- | --- | --- | --- | --- | --- | --- | --- | --- | --- | --- | --- | --- | --- | --- |
| N#Cc1ccc(COc2ccc3cc(S(=O)(=O)N[C@@H]4CCCC[C@H]4C(=O)O)ccc3c2)c(F)c1 | > 512 | > 512 | > 512 | > 512 | > 512 | > 512 | > 512 | > 512 | > 512 | > 512 | > 512 | > 512 | > 512 | > 512 | > 512 | > 512 | > 512 | > 512 | > 512 | > 512 | Activity (Escherichia coli [7]): 88% |
| CCCCOc1ccc2cc(S(=O)(=O)N[C@@H]3CCCC[C@H]3C(=O)O)ccc2c1 | 64 (≈ 158 µM) | 64 (≈ 158 µM) | 64 (≈ 158 µM) | 64 (≈ 158 µM) | 256 (≈ 631 µM) | 256 (≈ 631 µM) | 512 (≈ 1260 µM) | 64 (≈ 158 µM) | 32 (≈ 78.9 µM) | 32 (≈ 78.9 µM) | > 512 | > 512 | > 512 | > 512 | > 512 | > 512 | 256 (≈ 631 µM) | 256 (≈ 631 µM) | 256 (≈ 631 µM) | 256 (≈ 631 µM) | Activity (Escherichia coli [7]): 100% |
| N#Cc1ccc(COc2ccc3cc(S(=O)(=O)N[C@H](CCC(=O)O)C(=O)O)ccc3c2)c(F)c1 | – | – | – | – | – | – | – | – | – | – | – | – | – | – | – | – | – | – | – | – | Ki [12]: 58 µM |
| N#Cc1ccc(COc2ccc3cc(S(=O)(=O)N[C@H]4CCCC[C@H]4C(=O)O)ccc3c2)c(F)c1 | > 512 | > 512 | > 512 | > 512 | 256 (≈ 531 µM) | > 512 | > 512 | > 512 | > 512 | > 512 | > 512 | > 512 | > 512 | > 512 | > 512 | > 512 | 256 (≈ 531 µM) | 256 (≈ 531 µM) | 256 (≈ 531 µM) | 256 (≈ 531 µM) | Activity (Escherichia coli [7]): 45% |
| N#Cc1ccc(COc2ccc3cc(S(=O)(=O)Nc4cc(C(=O)O)ccc4C(=O)O)ccc3c2)c(F)c1 | > 512 | > 512 | > 512 | > 512 | > 512 | > 512 | > 512 | > 512 | > 512 | > 512 | > 512 | > 512 | > 512 | > 512 | > 512 | > 512 | > 512 | > 512 | > 512 | > 512 | Activity (Escherichia coli [7]): 2%; IC50 [12]: 38 µM; Ki [12]: 26 µM |
| CCCCOc1ccc2cc(S(=O)(=O)Nc3ccc(C(=O)O)cc3C(=O)O)ccc2c1 | > 512 | > 512 | > 512 | > 512 | > 512 | > 512 | > 512 | > 512 | > 512 | > 512 | > 512 | > 512 | > 512 | > 512 | > 512 | > 512 | > 512 | > 512 | > 512 | > 512 | Activity (Escherichia coli [7]): 8%; IC50 [12]: 127 µM; Ki [12]: 87 µM |
| N#Cc1ccc(COc2ccc3cc(S(=O)(=O)NC4CCC(C(=O)O)CC4C(=O)O)ccc3c2)c(F)c1 (racemic) | > 512 | > 512 | > 512 | > 512 | > 512 | > 512 | > 512 | > 512 | > 512 | > 512 | > 512 | > 512 | > 512 | > 512 | > 512 | > 512 | > 512 | > 512 | > 512 | > 512 | Activity (Escherichia coli [7]): 14% |
| CCCCOc1ccc2cc(S(=O)(=O)N[C@H]3CCCC[C@H]3C(=O)O)ccc2c1 | 64 (≈ 158 µM) | 64 (≈ 158 µM) | 64 (≈ 158 µM) | 64 (≈ 158 µM) | 256 (≈ 631 µM) | 256 (≈ 631 µM) | 512 (≈ 1260 µM) | 64 (≈ 158 µM) | 32 (≈ 78.9 µM) | 32 (≈ 78.9 µM) | > 512 | > 512 | > 512 | > 512 | > 512 | > 512 | 256 (≈ 631 µM) | 256 (≈ 631 µM) | 128 (≈ 316 µM) | 128 (≈ 316 µM) | Activity (Escherichia coli [7]): 93% |
| CCCCOc1ccc2cc(S(=O)(=O)NC3CCC(C(=O)O)CC3C(=O)O)ccc2c1 (racemic) | 64 (≈ 142 µM) | 64 (≈ 142 µM) | 64 (≈ 142 µM) | 32 (≈ 71.2 µM) | 128 (≈ 285 µM) | 256 (≈ 569 µM) | 128 (≈ 285 µM) | 64 (≈ 142 µM) | 32 (≈ 71.2 µM) | 32 (≈ 71.2 µM) | > 512 | > 512 | > 512 | > 512 | > 512 | > 512 | 128 (≈ 285 µM) | 128 (≈ 285 µM) | 32 (≈ 71.2 µM) | 128 (≈ 285 µM) | Activity (Escherichia coli [7]): 89% |
| CCCCOc1ccc2cc(S(=O)(=O)Nc3ccc(CC(=O)O)cc3)ccc2c1 | > 512 | > 512 | > 512 | 512 (≈ 1240 µM) | 512 (≈ 1240 µM) | 256 (≈ 619 µM) | 512 (≈ 1240 µM) | 512 (≈ 1240 µM) | > 512 | > 512 | 512 (≈ 1240 µM) | > 512 | > 512 | > 512 | > 512 | > 512 | 256 (≈ 619 µM) | 256 (≈ 619 µM) | 256 (≈ 619 µM) | 256 (≈ 619 µM) | Activity (Escherichia coli [13]): 97% |
| N#Cc1ccc(COc2ccc3cc(S(=O)(=O)Nc4ccc(CC(=O)O)cc4)ccc3c2)c(F)c1 | 64 (≈ 130 µM) | 32 (≈ 65.2 µM) | 64 (≈ 130 µM) | > 512 | > 512 | > 512 | > 512 | > 512 | > 512 | > 512 | > 512 | > 512 | > 512 | > 512 | > 512 | > 512 | > 512 | > 512 | > 512 | > 512 | Activity (Escherichia coli [13]): 64% |
| N#Cc1ccc(COc2ccc3cc(S(=O)(=O)Nc4cc(C(=O)O)cc(C(=O)O)c4)ccc3c2)c(F)c1 | > 512 | > 512 | > 512 | > 512 | > 512 | > 512 | > 512 | > 512 | > 512 | > 512 | > 512 | > 512 | > 512 | > 512 | > 512 | > 512 | > 512 | > 512 | > 512 | > 512 | Activity (Escherichia coli [7]): 2%; IC50 [12]: 50 µM; Ki [12]: 34 µM |
| N#Cc1ccc(COc2ccc3cc(S(=O)(=O)N4CCC(C(=O)O)CC4)ccc3c2)c(F)c1 | – | – | – | – | – | – | – | – | – | – | – | – | – | – | – | – | – | – | – | – | Activity (Escherichia coli [13]): 94% |
| CCCCOc1ccc2cc(S(=O)(=O)N[C@H](CCC(=O)O)C(=O)O)ccc2c1 | – | – | – | – | – | – | – | – | – | – | – | – | – | – | – | – | – | – | – | – | IC50 [12]: 280 µM; Ki [12]: 192 µM |
| CCCCOc1ccc2cc(S(=O)(=O)Nc3cc(C(=O)O)ccc3C(=O)O)ccc2c1 | > 512 | > 512 | > 512 | > 512 | > 512 | > 512 | > 512 | > 512 | > 512 | > 512 | > 512 | > 512 | > 512 | > 512 | > 512 | > 512 | > 512 | > 512 | > 512 | > 512 | Activity (Escherichia coli [13]): 78% |
| CCCCOc1ccc2cc(S(=O)(=O)N3CCC(C(=O)O)CC3)ccc2c1 | – | – | – | – | – | – | – | – | – | – | – | – | – | – | – | – | – | – | – | – | Activity (Escherichia coli [13]): 97% |
| N#Cc1ccc(COc2ccc3cc(S(=O)(=O)Nc4ccc(C(=O)O)cc4C(=O)O)ccc3c2)c(F)c1 | > 512 | > 512 | > 512 | > 512 | > 512 | > 512 | > 512 | > 512 | > 512 | > 512 | > 512 | > 512 | > 512 | > 512 | > 512 | > 512 | > 512 | > 512 | > 512 | > 512 | Activity (Escherichia coli [7]): 0.79%; IC50 [12]: 8.4 µM; Ki [12]: 5.8 µM |
